Data on 13 compounds can be found in US10947241B2, “Phenyl phthalazine derivative, method for the preparation thereof, and pharmaceutical composition comprising the same” (Seoul National University Hospital, priority 2016, dated 2021).

The assay concerns the target hResistin (Homo sapiens (Human), UniProt Q9HD89). As to the kind of experiment: Evaluation of the ability to inhibit TNF-α secretion by hResistin (THP-1 cells, ELISA). Type of assay: cell-based. Conditions: 5 μM, inhibition of TNF-α secretion by hResistin in THP-1 cells. As to the method:
Experimental Example: Evaluation of the Ability to Inhibit TNF-α Secretion by hResistin
Using THP-1 (human monocyte) cell line and ELISA system, the abilities to inhibit TNF-α secretion by hResistin (IC50) were evaluated for the compounds prepared in the above examples. The compounds target hResistin, and the abilities of the compounds to inhibit TNF-α secretion by human recombinant Resistin in human monocyte (THP-1) were evaluated. The abilities to inhibit TNF-α secretion were assessed by ELISA quantifying the amount of antibody with the enzyme as a marker using an antigen-antibody reaction.
Specifically, the cultured cells were spun down at 1,500 rpm for 2 minutes, the supernatant was removed and then the cells were re-suspended in 10 mL of complete RPMI-1640 medium. After counting the number of cells using Luna™ Automated Cell Counter, cells were plated into 96-well assay plates at 50 μL per well. The cells cultured for 24 hours were treated with the test substances in accordance with the concentration for 1 hour, and then the supernatant was collected and subjected to ELISA assay. In the ELISA assay, the absorbance at 450 nm (OD450 nm) was measured using Flexstation 3. The ability of each test substance to inhibit TNF-α secretion (IC50) and its inhibition at a concentration of 5 uM are shown in Table 1 below.

Where a name gives a salt, the structure may show the parent alone.

hResistin, sequence (Q9HD89 19-108): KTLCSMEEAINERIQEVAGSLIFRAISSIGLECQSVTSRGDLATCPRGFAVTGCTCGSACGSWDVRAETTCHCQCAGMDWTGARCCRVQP

`O=C([C@@H]1CCCN1)N1CCC(c2nnc(-c3ccc(Cl)cc3)c3ccccc23)CC1` [Example 62, (S)-(4-(4-(4-chlorophenyl)phthalazin-1-yl)piperidin-1-yl)(pyrrolidin-2-yl)methanone hydrochloride] had an inhibition at 5 µM of 24.8%.
With `CC[C@H](C)[C@H](N)C(=O)N1CCC(c2nnc(-c3ccc(Cl)cc3)c3ccccc23)CC1` [Example 63, (2S,3S)-2-amino-1-(4-(4-(4-chlorophenyl)phthalazin-1-yl)piperidin-1-yl)-3-methylpentan-1-one hydrochloride] the figure was 53.6%; with `CC(C)(N)C(=O)N1CCC(c2nnc(-c3ccc(Cl)cc3)c3ccccc23)CC1` [Example 64, 2-amino-1-(4-(4-(4-chlorophenyl)phthalazin-1-yl)piperidin-1-yl)-2-methylpropan-1-one hydrochloride], 23.9%; with `CCOC(=O)CN1CCN(c2nnc(-c3ccc(Cl)cc3)c3ccccc23)CC1` [Example 65, ethyl 2-(4-(4-(4-chlorophenyl)phthalazin-1-yl)piperazin-1-yl)acetate], 2.4%.
`Clc1ccc(-c2nnc(N3CCCN(Cc4ccccc4)CC3)c3ccccc23)cc1` [Example 67, 1-(4-benzyl-1,4-diazepan-1-yl)-4-(4-chlorophenyl)phthalazine]: testing at 5 µM gave an inhibition of 38.9%.
Next, `CC(C)[C@H](N)C(=O)N1CCN(c2nnc(-c3ccc(Cl)cc3)c3ccccc23)CC1(C)C` [Example 69, (S)-2-amino-1-(4-(4-(4-chlorophenyl)phthalazin-1-yl)-2,2-dimethylpiperazin-1-yl)-3-methylbutan-1-one hydrochloride]: 16.1%; `C[C@@H]1CN(c2nnc(-c3ccc(Cl)cc3)c3ccccc23)CCN1C(=O)C(C)(C)N` [Example 70, (R)-2-amino-1-(4-(4-(4-chlorophenyl)phthalazin-1-yl)-2-methylpiperazin-1-yl)-2-methylpropan-1-one hydrochloride]: 61.4%; `CC(C)[C@H](N)C(=O)N1CCN(c2nnc(-c3ccc(Cl)cc3)c3ccccc23)C[C@H]1C` [Example 71, (S)-2-amino-1-((R)-4-(4-(4-chlorophenyl)phthalazin-1-yl)-2-methylpiperazin-1-yl)-3-methylbutan-1-one hydrochloride]: 42.2%.
Next, `C[C@H]1CN(c2nnc(-c3ccc(Cl)cc3)c3ccccc23)CCN1C(=O)C(C)(C)N` [Example 72, (S)-2-amino-1-(4-(4-(4-chlorophenyl)phthalazin-1-yl)-2-methylpiperazin-1-yl)-2-methylpropan-1-one hydrochloride]: 72.2%; `CC(C)[C@H](N)C(=O)N1CCN(c2nnc(-c3ccc(Cl)cc3)c3ccccc23)C[C@@H]1C` [Example 73, (S)-2-amino-1-((S)-4-(4-(4-chlorophenyl)phthalazin-1-yl)-2-methylpiperazin-1-yl)-3-methylbutan-1-one hydrochloride]: 53.6%.
`C[C@H]1CN(C(=O)C(C)(C)N)CCN1c1nnc(-c2ccc(Cl)cc2)c2ccccc12` [Example 74, (S)-2-amino-1-(4-(4-(4-chlorophenyl)phthalazin-1-yl)-3-methylpiperazin-1-yl)-2-methylpropan-1-one hydrochloride] displayed an inhibition at 5 µM of 38.7%.
With `CC(C)[C@H](N)C(=O)N1CCN(c2nnc(-c3ccc(Cl)cc3)c3ccccc23)[C@@H](C)C1` [Example 75, (S)-2-amino-1-((S)-4-(4-(4-chlorophenyl)phthalazin-1-yl)-3-methylpiperazin-1-yl)-3-methylbutan-1-one hydrochloride] the figure was 30.9%.
With `N[C@@H](Cc1c[nH]cn1)C(=O)N1CCN(c2nnc(-c3ccc(Cl)cc3)c3ccccc23)CC1` [Example 76, (S)-2-amino-1-(4-(4-(4-chlorophenyl)phthalazin-1-yl)piperazin-1-yl)-3-(1H-imidazol-4-yl)propan-1-one dihydrochloride] the figure was 28.9%.
